Source: PMC3985517, “Abscisic acid dynamics in roots detected with genetically encoded FRET sensors” (eLife, 2014)
Read-outs that look alike come from different tables or passages of the source.

What was measured:
[1] = tested on: Arabidopsis seedlings; assay: Primary root growth of ABACUS1 plant lines on ABA plates; assay type: in vivo
Protocol: (§1) For ABA treatments, 20 mM (±)-ABA was prepared freshly as a stock solution in 50 mM NaOH. Mock treatment plates were made using NaOH to keep pH consistent. Root tips were marked at the time of transfer and images were acquired after 4 days growth on vertical treatment plates. Root growth after transfer were measured using FIJI (http://fiji.sc/). Each experiment included ∼15 roots per genotype and was repeated three independent times with similar results. ABA sensitivity of seed germination rate of Arabidopsis seeds was assayed after sowing on ½ × MS agar medium plates supplemented with 0, 2 or 20 µM (±)-ABA. […] Plates were stratified for 2 days at +4°C after which they were transferred to a growth chamber with standard long day conditions (16 hr high light, 22°C, 70% RH). Seeds were considered germinated at radicle emergence and germination rate was assayed 9 days post sowing in three independent experiments of 100–200 seeds per genotype. The abi1-2, hab1-1, pp2ca-1 triple mutant line was a gift from Pedro Rodriguez ([Rubio et al., 2009]).

[2] = tested on: Arabidopsis seeds; assay: Seed germination on ABA plates; assay type: in vivo; conditions: all genotypes; plates with 20 µM (±)-ABA
Protocol: as §1

[3] = tested on: ABACUS1-2µ; assay type: biochemical, Arabidopsis; conditions: Figure 3B-E
[4] = tested on: Arabidopsis roots; assay: ABACUS1 responses in roots perfused with ABA in the RootChip16; assay type: in vivo
Protocol: The RootChip16 device was used as described in detail previously for the RootChip ([Grossmann et al., 2011], [2012]). Briefly, the device was sterilized by UV light exposure, immersed in liquid growth media (¼ × MS salts, 1.28 mM MES pH 5.7 supplemented with B vitamins at final concentrations of niacin 2.3 µM, thiamine 1.5 µM, pyridoxin 1.2 µM and myo-inositol 0.3 µM), and air in the root observation chambers was removed by applying suction at the solution outlets using a microliter pipette. 5-day old Arabidopsis seedlings, germinated on 5 mm long cut 10 µl pipette tips filled with solidified growth medium (½ × MS salts, 1% Agar, 2.56 mM MES pH 5.7 supplemented with B vitamins at final concentrations of niacin 4.6 µM, thiamine 3.0 µM, pyridoxin 2.4 µM and myo-inositol 0.6 µM, were transferred onto the chip by plugging the tips into the root inlets. The chip was incubated for 24 hr under standard long-day growth conditions (16 hr high light, 22°C, 70% RH) to allow roots to grow into the observation chambers. Before imaging, the RootChip16 was inserted from below into the central aperture of the carrier and fixed with tape. Pressure lines for control over micromechanical valves and flow lines for perfusion of solutions were connected. To actuate the push-up valves on the chip, a closing pressure of 15 p.s.i (1.03 bar) was applied to the water filled control lines. […]

[5] = parameters: method as in Kaiser and Hartung, 1981; conditions: ref Kaiser and Hartung, 1981; cited from earlier work
[6] = tested on: Arabidopsis roots; parameters: method as in Grossmann et al., 2011; conditions: ref Grossmann et al., 2011; cited from earlier work

## CC1=CC(=O)CC(C)(C)C1(O)/C=C/C(C)=C\C(=O)O (racemic) [(±)-ABA]
[1]; 20 µM exogenous (±)-ABA
  root growth of ABACUS1-2µ sensor lines: almost completely inhibited
[1]; 100 µM exogenous (±)-ABA
  root growth of ABACUS1-80µ plants: strongly inhibited
[2]
  germination: 0%

## O=c1[nH]c(=O)c2nc[nH]c2[nH]1 [Xanthine, xanthine]
[3]
  increase in energy transfer of ABACUS1 (positive ratio change), in words: did not occur

## CC1=CC(=O)CC(C)(C)[C@@]1(O)/C=C/C(C)=C\C(=O)O [ABA, abscisic acid]
[4]; first ABA pulse, 5 µM (±)-ABA, ABACUS1-2µ roots
  accumulation rate of a non-pre-exposed root relative to a root pre-exposed to ABA: nearly twice
[4]; typical experiment, roots
  time to saturation of sensor responses: ~15 min
[5]
  pKa: 4.7

## O=S(=O)(NCc1ccccn1)c1ccc(Br)c2ccccc12 [Pyrabactin, pyrabactin]
[3]
  increase in energy transfer of ABACUS1 (positive ratio change), in words: induced

## OC[C@H]1OC(O)[C@H](O)[C@@H](O)[C@@H]1O (stereo partly drawn) [Glucose, glucose]
[6]
  time to saturation of sensor responses: less than 1 min
